Reference: the supplement of paper PMC7600603

Key:
DLD1 NRF2-WT [1] = assay: drug sensitivity score (DSS) viability (DSS score); higher = more sensitive; extreme values may be limits of the assay; conditions: 72 h; CellTiter-Glo viability
In short: (§1)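 EC50 and drug sensitivity score, the latter a normalised area under the curve, were calculated from logistic dose-response fits. The fits had four parameters and used CellTiter-Glo viability data read on a Pherastar FS reader 72 h after treatment, normalised to vehicle wells and 100-μM positive-control wells. Treated cells were isogenic DLD1 colorectal cancer cells, NRF2 wild-type or CRISPR gain-of-function, exposed in 384-well plates to library compounds at 5 concentrations spanning a 10,000-fold range.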

DLD1 NRF2-GOF [2] = assay: as above; conditions: 72 h; CellTiter-Glo viability
In short: as §1

DLD1 NRF2-WT [3] = assay: TC50 cytotoxicity; higher = less toxic; conditions: 72 h; CellTox Green cytotoxicity
In short: (§2)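 Isogenic DLD1 colorectal cancer cells, either NRF2 wild-type or CRISPR gain-of-function, were grown in DMEM with 10% FBS. They were exposed in 384-well plates to library compounds at 5 concentrations spanning a 10,000-fold range. After 72 h, cytotoxicity was read by CellTox Green on a Pherastar FS reader and normalised to vehicle wells and 100-μM positive-control wells. TC50 and drug sensitivity score (a normalised area under the curve) came from logistic dose-response fits.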

DLD1 NRF2-GOF [4] = assay: TC50 cytotoxicity; higher = less toxic; conditions: 72 h; CellTox Green cytotoxicity
In short: as §2

DLD1 NRF2-WT [5] = conditions: 72 h; CellTiter-Glo viability
In short: as §1

DLD1 NRF2-GOF [6] = conditions: 72 h; CellTiter-Glo viability
In short: as §1

DLD1 NRF2-WT [7] = assay: drug sensitivity score (DSS) cytotoxicity (DSS score); higher = more toxic; extreme values may be limits of the assay; conditions: 72 h; CellTox Green cytotoxicity
In short: as §2

DLD1 NRF2-GOF [8] = assay: as above; conditions: 72 h; CellTox Green cytotoxicity
In short: as §2

SMILES | EC50 viability (DLD1 NRF2-WT [5]) | EC50 viability (DLD1 NRF2-GOF [6]) | drug sensitivity score (DLD1 NRF2-WT [1]) | drug sensitivity score (DLD1 NRF2-GOF [2]) | TC50 cytotoxicity (DLD1 NRF2-WT [3]) | TC50 cytotoxicity (DLD1 NRF2-GOF [4]) | drug sensitivity score (DLD1 NRF2-WT [7]) | drug sensitivity score (DLD1 NRF2-GOF [8])
COc1cc(Br)c(Nc2nc(-c3c(C)nc4ncccn34)cs2)c(Br)c1 [PTC-209] | 464 nM | 1440 nM | 10.8 | 6.2 | > 10000 nM | > 10000 nM | 0 | 0
CC(=O)O[C@H]1C(=O)[C@@]2(C)[C@H]([C@H](OC(=O)c3ccccc3)[C@]3(O)C[C@H](OC(=O)[C@H](O)[C@@H](NC(=O)c4ccccc4)c4ccccc4)C(C)=C1C3(C)C)[C@]1(OC(C)=O)CO[C@@H]1C[C@@H]2O [Paclitaxel] | 3.2 nM | 3.9 nM | 24.1 | 24 | 17.4 nM | > 1000 nM | 10.5 | 4.7
CC(=O)c1c(C)c2cnc(Nc3ccc(N4CCNCC4)cn3)nc2n(C2CCCC2)c1=O [Palbociclib] | 315 nM | 1490 nM | 12.3 | 6.7 | > 10000 nM | > 10000 nM | 0.2 | 0
Cc1ccc(Nc2nccc(N(C)c3ccc4c(C)n(C)nc4c3)n2)cc1S(N)(=O)=O [Pazopanib] | 53.1 nM | 44.4 nM | 6.9 | 10.2 | > 10000 nM | > 10000 nM | 0 | 0
CS(=O)(=O)N1CCN(Cc2cc3nc(-c4cccc5[nH]ncc45)nc(N4CCOCC4)c3s2)CC1 [Pictilisib] | 1000 nM | 1590 nM | 6.8 | 5.8 | > 10000 nM | > 10000 nM | 0.1 | 0
NCCNc1ccc(NCCN)c2c1C(=O)c1ccncc1C2=O [Pixantrone] | 1680 nM | 1110 nM | 4 | 4.9 | > 10000 nM | > 10000 nM | 0 | 0
COc1cccc(OCCCN)c1-c1cc(Nc2cnc(C#N)cn2)n[nH]1 [Prexasertib] | 737 nM | 365 nM | 12.1 | 13.5 | 1490 nM | 931 nM | 3.8 | 3.6
COC(=O)c1ccc([C@H]2c3[nH]c4ccccc4c3C[C@H](C(=O)OC)N2C(=O)CCl)cc1 [RSL3] | > 10000 nM | 17.4 nM | 6.6 | 9 | > 10000 nM | > 10000 nM | 0 | 0
Cc1cnc(NC(=O)Nc2cc(Br)c(C)cc2OC[C@@H]2CNCCO2)cn1 [Rabusertib] | > 1000 nM | > 1000 nM | 0.3 | 1 | > 1000 nM | > 1000 nM | 0 | 0
Cc1cn(-c2cc(NC(=O)c3ccc(C)c(Nc4nccc(-c5cnccn5)n4)c3)cc(C(F)(F)F)c2)cn1 [Radotinib] | > 10000 nM | > 10000 nM | 0 | 0.4 | > 10000 nM | > 10000 nM | 0 | 0.3

More lines, main results first:

EC50 viability (DLD1 NRF2-WT [5]) | EC50 viability (DLD1 NRF2-GOF [6]) | SMILES | drug sensitivity score (DLD1 NRF2-WT [1]) | drug sensitivity score (DLD1 NRF2-GOF [2]) | TC50 cytotoxicity (DLD1 NRF2-WT [3]) | TC50 cytotoxicity (DLD1 NRF2-GOF [4]) | drug sensitivity score (DLD1 NRF2-WT [7]) | drug sensitivity score (DLD1 NRF2-GOF [8])
771 nM | 1340 nM | O=C(Nc1cc(Cl)cc2c1[nH]c1cnccc12)c1cccnc1 [PS-1145] | 6.2 | 5.2 | > 25000 nM | > 25000 nM | 0 | 0
511 nM | 855 nM | C1=N/C2=N/c3ccc(OCCN4CCCC4)c(c3)COC/C=C/COCc3cccc(c3)C(=C1)N2 [Pacritinib] | 15.1 | 12.6 | 1980 nM | 1800 nM | 8.1 | 8.6
> 10000 nM | > 10000 nM | COc1ccc(COc2cc3oc(=O)c4cc(C(C)O)ccc4c3cc2OC)cc1 (configuration not stated) [Palomid-529] | 0 | 0.6 | > 10000 nM | > 10000 nM | 0 | 0
64.9 nM | 70.1 nM | Cc1[nH]c2ccccc2c1CCNCc1ccc(/C=C/C(=O)NO)cc1 [Panobinostat] | 13.3 | 11.2 | 124 nM | > 1000 nM | 6.6 | 1.1
> 10000 nM | > 10000 nM | FC(F)(F)c1ccc(CNc2ccc(Cc3c[nH]c4ncc(Cl)cc34)cn2)cn1 [Pexidartinib] | 0 | 0.9 | > 10000 nM | > 10000 nM | 0 | 0
> 40000 nM | > 40000 nM | CC[C@@H]1C(=O)OC[C@@H]1Cc1cncn1C [Pilocarpine] | 0 | 0.1 | > 40000 nM | > 40000 nM | 0 | 0
> 10000 nM | > 10000 nM | Cc1ccc(=O)n(-c2ccccc2)c1 [Pirfenidone] | 0 | 0 | > 10000 nM | > 10000 nM | 0 | 0
203 nM | 258 nM | C=CC(=O)N1CCC(Oc2cc3c(Nc4ccc(Cl)c(Cl)c4F)ncnc3cc2OC)CC1 [Poziotinib] | 3.6 | 2.7 | > 1000 nM | > 1000 nM | 0 | 0
795 nM | 929 nM | CCCCc1nc2cc(/C=C/C(=O)NO)ccc2n1CCN(CC)CC [Pracinostat] | 11.9 | 9.1 | 1480 nM | > 10000 nM | 4 | 1.6
